For this assay, the target named is G-protein coupled receptor 151 (Homo sapiens) (UniProt Q8TDV0). Nature of the assay: GPR151 activator potency, dose response, cell-based (AID 1508610). The settings on record: cell-based GPR151 activation reporter.

The source made the active and inactive calls. The rule behind the calls is not given here.

Experimental findings from PubChem BioAssay AID1508610 (The Scripps Research Institute Molecular Screening Center, 2020) are described below.

G-protein coupled receptor 151 (Homo sapiens), sequence (Q8TDV0 whole entry, looked up): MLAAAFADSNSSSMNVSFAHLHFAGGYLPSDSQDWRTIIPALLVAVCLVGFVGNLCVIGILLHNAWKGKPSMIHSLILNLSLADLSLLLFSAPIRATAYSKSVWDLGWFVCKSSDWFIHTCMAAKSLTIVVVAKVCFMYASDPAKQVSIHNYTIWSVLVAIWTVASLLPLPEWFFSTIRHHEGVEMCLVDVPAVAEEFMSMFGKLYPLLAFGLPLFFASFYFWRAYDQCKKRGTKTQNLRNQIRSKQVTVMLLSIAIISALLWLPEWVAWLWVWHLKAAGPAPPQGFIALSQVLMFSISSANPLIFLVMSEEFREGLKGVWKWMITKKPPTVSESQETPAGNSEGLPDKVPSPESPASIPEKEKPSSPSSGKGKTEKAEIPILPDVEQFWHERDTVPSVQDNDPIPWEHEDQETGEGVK

Broadly, the EC50 is the midpoint of the concentration-response curve. In the case of `O=C1CS/C(=C\c2nc3ccccc3s2)N1`, the EC50 is > 31.6 µM (inactive). For the molecule `CCCCCNC(=O)c1c(O)c2c([nH]c1=O)CCCC2`, the EC50 is > 34.1 µM (inactive). Turning to `COc1ccc(NS(=O)(=O)c2cccc3c(S(=O)(=O)Nc4ccc(OC)cc4OC)cccc23)c(OC)c1`, the EC50 was > 20.8 µM (inactive). With `COC(=O)c1c(NC(=O)/C=C\C(=O)O)sc(C)c1C`, the EC50 was > 28 µM (inactive). As for `COc1ccc(-c2ccc(C(=O)NC3CC3)s2)cc1`, the figure is > 28 µM (inactive); as for `CCOC(=O)c1c(NC(=O)C(C)Sc2cn(C)c3ccccc23)sc2c1CCCCC2` (stereo not drawn), “inactive”; as for `Cn1c(COc2ccc(Cl)cc2)nnc1SCC(=O)NCC(F)(F)F`, > 28.4 µM (inactive). Next, `N#C/C(=C\c1cc(Cl)ccc1O)c1nc2ccccc2[nH]1`: > 28 µM (inactive); `C=CCOC(=O)C1=C(C)N2CCSC2=C(C#N)C1c1ccco1` (stereo not drawn): > 32 µM (inactive); `OC(c1cccnc1)c1ccc2c(c1)CN(Cc1cccc(Cl)c1)CCO2` (stereo not drawn): > 28 µM (inactive). As for `Cc1ccc(Oc2nc3ccccn3c(=O)c2/C=C(\C#N)C(N)=O)c(C)c1`, the figure is > 28 µM (inactive); as for `O=C(Nc1nc2ccccc2[nH]1)c1ccccc1Cl`, > 28.9 µM (inactive). As for `N#C/C(=C\c1c(Oc2ccc(Cl)cc2Cl)nc2ccccn2c1=O)C(N)=O`, the EC50 was > 27.9 µM (inactive). For the molecule `CSc1nc2ccc(NC(=O)Cn3cnc4ccccc4c3=O)cc2s1`, the EC50 is > 29.3 µM (inactive). As for `CC(C)CC(=O)NCC1CCC2(CCN(Cc3ccccc3F)CC2)O1` (stereo not drawn), the figure is > 28 µM (inactive).

As for `CC(c1ccccc1)C1CC(=O)N(Cc2ccccc2)C1=O` (stereo not drawn), the EC50 was > 32.4 µM (inactive). As to `Cn1cccc1C(=O)OCC(=O)NC(=O)NCc1ccccc1`, the EC50 was > 28.4 µM (inactive). Consider `CCOc1ccc(/C=C2\SC(=S)N(CC(=O)Nc3ccc(O)cc3)C2=O)cc1`, for which the EC50 was > 28.4 µM (inactive).

For the molecule `Cc1ccc(-n2nc3c(c2NC(=O)c2cccc(F)c2)CS(=O)C3)c(C)c1` (stereo not drawn), the EC50 was > 27.8 µM (inactive). For the molecule `Cc1cccc2c(C(=O)NCc3ccccc3)cc(-c3ccccc3)nc12`, the EC50 was > 24.6 µM (inactive). As for `CCN(CC)C(=S)SCCC(=O)NC(=O)Nc1ccc(F)cc1`, the figure is > 28 µM (inactive). In the case of `COc1ccc(CNC(=O)CCCn2cccc2)cc1`, the EC50 is > 28 µM (inactive). For `CN1C(=O)C(=Cc2nc3ccccc3c(=O)n2-c2ccc([N+](=O)[O-])cc2)c2cc(Br)ccc21`, the EC50 was > 19.1 µM (inactive). With `O=C1NC(=S)S/C1=C\c1ccc(C(=O)O)cc1`, the EC50 is > 29.6 µM (inactive). For the molecule `Cn1c(=O)c2c(nc(N3CCCCCC3)n2CCc2ccccc2)n(C)c1=O`, the EC50 was > 27.9 µM (inactive).

For the molecule `O=C(O)CCn1cc(C=C2C(=O)NC(=O)NC2=O)c(-c2ccc(Br)cc2)n1`, the EC50 was > 28 µM (inactive). Consider `CCC(NS(=O)(=O)c1ccc(Cl)c([N+](=O)[O-])c1)C12CC3CC(CC(C3)C1)C2` (stereo not drawn), for which the EC50 is > 26.9 µM (inactive). As for `Cc1sc(NC(=O)c2ccco2)c(CN2CCN(CCO)CC2)c1C`, the figure is > 27.7 µM (inactive); as for `COc1cc(Nc2cc(-c3ccc(C(N)=O)cc3)nc(N)n2)cc(OC)c1OC`, > 25.6 µM (inactive). Turning to `O=C(O)c1cccc(COc2cccc(Cl)c2)c1`, the EC50 was > 28 µM (inactive). For the molecule `O=C(O)c1cccc(COc2ccc(CO)cc2Br)c1`, the EC50 was > 28 µM (inactive). On to `CCc1cc2c(cc3c(=O)n(CC(=O)NCc4ccccc4Br)ncn32)s1`, for which the EC50 was > 28 µM (inactive). As to `S=c1nc2c(n[nH]1)c1ccccc1n2CCc1ccccc1`, the EC50 was > 33 µM (inactive).

On to `c1ccc2[nH]c(-c3nc4ccccc4o3)nc2c1`, for which the EC50 was > 28.6 µM (inactive). Consider `CC(C)Cn1c(-c2nn(C)cc2Cl)n[nH]c1=S`, for which the EC50 is > 28 µM (inactive). Consider `COC(=O)c1ccc(C2C(C#N)=C(N)Oc3n[nH]c(C45CC6CC(CC(C6)C4)C5)c32)cc1` (stereo not drawn), for which the EC50 result was “inactive”. On to `CCN1CCc2c(sc(NC(=O)c3ccc(S(=O)(=O)N4CCCC(C)C4)cc3)c2C(=O)OC)C1` (stereo not drawn), for which the EC50 was > 27.6 µM (inactive).

As to `Cc1ccc(-c2nc(-c3ccccn3)no2)cc1Cl`, the EC50 is > 35 µM (inactive).

Regarding `CCOC(=O)C1=C(C)N=c2s/c(=C\c3ccc(-c4ccccc4C(=O)O)o3)c(=O)n2C1c1ccccc1OC` (stereo not drawn), the EC50 was > 25.1 µM (inactive). As for `O=C(Nc1ncc([N+](=O)[O-])s1)c1ccc(Cl)cc1Cl`, the EC50 was > 27.3 µM (inactive). Regarding `COc1ccc(-n2nc3c(c2NC(=O)c2c(F)cccc2F)CS(=O)(=O)C3)cc1`, the EC50 was > 31.2 µM (inactive).

Consider `CC(C)NC(=O)c1cnc2scc(-c3ccccc3)n2c1=O`, for which the EC50 is > 28 µM (inactive). With `COc1ccc(CCNc2ncnc3c2oc2ccccc23)cc1OC`, the EC50 is > 27.6 µM (inactive). Next, `CCN(CC)c1nc(SC)nc(Cl)c1Cc1ccc(OC(C)C)cc1`: > 25.2 µM (inactive); `OC1CCN(Cc2ccc3c(c2)CN(CC2CC=CCC2)CCO3)CC1` (stereo not drawn): > 28 µM (inactive); `Cc1ccc(-c2csc3nnc(SCC(=O)NC(N)=O)n23)cc1`: > 29 µM (inactive).

In the case of `COc1ccccc1Cn1c(=S)[nH]c2cc(C(=O)N3CCC(C(N)=O)(N4CCCCC4)CC3)ccc2c1=O`, the EC50 entry was “inactive”. As for `Cc1ccccc1C(=O)Nc1noc2ccccc12`, the figure is > 28 µM (inactive). Regarding `OCCC1CN(Cc2ccc3nonc3c2)CCN1Cc1ccc(F)c(F)c1` (stereo not drawn), the EC50 was > 28 µM (inactive). Turning to `COc1ccc(CCNc2cc(C)nc(Nc3ccc(-n4ccnc4)cc3)n2)cc1`, the EC50 was 1.17 µM. On to `COC(C(=O)NCC1CCC2(CCN(Cc3ccccc3)CC2)O1)c1ccccc1` (stereo not drawn), for which the EC50 is > 28 µM (inactive). With `O=C(Nc1noc2ccccc12)c1ccc(F)cc1`, the EC50 is > 28 µM (inactive). Turning to `Cc1ccc2nc(/C(C#N)=C\c3ccccc3OCC#N)[nH]c2c1`, the EC50 is > 28 µM (inactive). `C=CCN1C(=O)CS/C1=N\NC(=O)c1ccccc1`: the EC50 was > 28.5 µM (inactive). For `Cc1ccc(S(=O)(=O)Cn2nnnc2CN2CCN(c3ccccc3F)CC2)cc1`, the EC50 was > 28 µM (inactive). In the case of `Cc1ccsc1C(=O)Nc1nc2ccc(S(C)(=O)=O)cc2s1`, the EC50 is > 28.6 µM (inactive).

On to `CN(C)/C=C1/C(=O)N(c2nc3ccccc3s2)N=C1C(F)(F)F`, for which the EC50 was > 38.5 µM (inactive). For the molecule `COc1ccc(OC)c(C(C)NC(=O)c2ccccc2Cl)c1` (stereo not drawn), the EC50 is > 28 µM (inactive). Next, `NC(=O)C1CCN(C(=O)c2ccc3nc(N4CCCCC4)sc3c2)CC1`: > 28 µM (inactive).

Take `Nc1nc2n(n1)C(c1ccccc1Cl)CC(c1ccc(F)cc1)N2` (stereo not drawn): the EC50 was > 28 µM (inactive). Next, `C[C@H]1NC(=O)[C@H]2CN(C(=O)NCc3ccccc3)CCN2C1=O`: > 28 µM (inactive). Turning to `Cc1sc(NC(=O)c2cc3ccccc3oc2=O)nc1-c1ccc(Br)cc1`, the EC50 is > 18.6 µM (inactive). Consider `CC(=O)c1ccc(OC(=O)c2cccc(Br)c2)cc1`, for which the EC50 was > 25.9 µM (inactive). Consider `Cc1ccc(-c2cnn(-c3ccc(C(=O)O)cc3)c2)cc1`, for which the EC50 was > 28 µM (inactive).

As for `COc1cc(C2CC(=O)Nc3cc(C)c(C)cc32)cc(OC)c1OC` (stereo not drawn), the EC50 was > 26.6 µM (inactive). For `Cc1nn(-c2ccc(Nc3ccc(NC(=O)c4cccc(F)c4)cc3)nn2)c(C)c1C`, the EC50 result is “inactive”. With `CC(=O)Nc1ccc(Nc2nc(-c3ccc(C(=O)NC4CC4)cc3)nc3nc[nH]c23)cc1`, the EC50 was > 27.8 µM (inactive). With `CCOc1cc(OCC)cc(C(=O)Nc2ccc(Br)cn2)c1`, the EC50 is > 28 µM (inactive).

As for `O=C(Nc1nnc(SCc2cccc(F)c2)s1)C1CC1`, the EC50 was > 29 µM (inactive). In the case of `Cc1cnc(C)c(NC2CCCCNC2=O)n1` (stereo not drawn), the EC50 was > 28 µM (inactive). In the case of `O=C1C2C3C=CC(C3)C2C(=O)N1Nc1c(Cl)cc(Cl)cc1Cl` (stereo not drawn), the EC50 is > 28 µM (inactive). Turning to `Cc1ccc2cc(CN(CC3CCCO3)C(=O)C3CCC3)c3nnnn3c2c1` (stereo not drawn), the EC50 was > 28 µM (inactive).

On to `CSc1nc(-c2ccccc2)cn1-c1ccc(F)cc1`, for which the EC50 is > 35.5 µM (inactive). Take `CCOc1ccccc1CN1CCN(Cc2cccc(OC)c2)CC1CCO` (stereo not drawn): the EC50 is > 28 µM (inactive). For `Cc1ccc2c(c1)N(CC(=O)Nc1ccc(Cl)cc1)C(=O)C(C)O2` (stereo not drawn), the EC50 is > 28 µM (inactive). Next, `O=C(Cc1cn(-c2ccc(Cl)nn2)c2ccccc12)NCCN1CCOCC1`: > 28.1 µM (inactive); `COc1ccc(-c2nnc3sc(NC(=O)C(C)C)nn23)cc1OC`: > 28 µM (inactive); `COC(=O)C(NC(=O)c1ccc(Br)cc1)c1ccccc1` (stereo not drawn): > 28 µM (inactive). As for `CCCNC(=O)c1ccc(-c2ccc(N3CCOCC3)nc2)s1`, the figure is > 28.1 µM (inactive); as for `CC[C@@H]1NC(=O)[C@H]2CN(C(=O)c3cccc(Cl)c3)CCN2C1=O`, > 28 µM (inactive). As to `CC1CCN(S(=O)(=O)c2ccc(NC(=O)CSc3nc4ccccc4o3)cc2)CC1`, the EC50 entry is “inactive”. Turning to `Cc1ccc(C(=O)NN=C2CCC(C)CC2)cc1` (stereo not drawn), the EC50 was > 28 µM (inactive).

With `O=C(NCc1ccc(Cl)cc1)C1C2C=CC3(CN(Cc4ccccc4)C(=O)C13)O2` (stereo not drawn), the EC50 was > 25.1 µM (inactive).

With `C=CCN1/C(=C\C=C2\C=Nc3ccc(Br)cc32)C=Cc2ccc(C)cc21`, the EC50 was > 21.9 µM (inactive).

As to `Cc1nn(C)cc1CN1CCOc2ccc(CN3CCc4ccccc4C3)cc2C1`, the EC50 was > 28 µM (inactive). Take `O=C1CCCCN1c1cccc(NS(=O)(=O)c2cc(F)ccc2F)c1`: the EC50 was > 28 µM (inactive). As for `Cc1n[nH]c(C)c1S(=O)(=O)NCc1ccc(F)cc1`, the figure is > 28 µM (inactive). Regarding `COc1ccc(-c2cnn(-c3ccc(C(=O)O)cc3)c2)cc1`, the EC50 is > 28 µM (inactive).
